Test results from patent US6372208B1, “Method of reducing an immune response to a recombinant virus” (The Trustees of the University of Pennsylvania, priority 1996, dated 2002).
Entries after “also recorded” stand apart in the source; their conditions may differ.

Legend:
[1] = test system: recombinant adenoviruses H5.010CBALP and H5.010CMVlacZ; test: Lung-directed adenovirus gene transfer and readministration, transgene expression by histochemistry (Example 2); type: in vivo, C57BL/6 mice
Experimental: Female C57BL/6 mice (6˜8 week old) were infected with suspensions of H5.010CBALP (1×10^9 pfu in 50 μl of PBS) via the trachea at day 0 and similarly with H5.010CMVlacZ at day 28. One group of such mice was used as a control. Another group of mice were acutely depleted of CD4^+ cells by i.p. injection of antibody to CD4^+ cells (GK1.5; ATCC No. TIB207, 1:10 dilution of ascites) at the time of the initial gene therapy (days −3, 0, and +3). A third group of mice was injected with IL-12 (1 μg intratracheal or 2 μg, i.p. injections) at the time of the first administration of virus (days 0 and +1). A fourth group of mice was injected with gamma interferon. (1 μg intratracheal or 2 μg, i.p. injections) at the time of the first administration of virus (days 0 and +1).
When mice were subsequently euthanized and necropsied at days 3, 28, or 31, lung tissues were prepared for cryosections, while bronchial alveolar lavage (BAL) and mediastinal lymph nodes (MLN) were harvested for immunological assays.
The lung tissues were evaluated for ALP expression at day 3 and day 28 by histochemical staining following the procedures of Yang I, cited above. β-galactosidase expression was assayed at day 31 by X-gal histochemical staining. The results described below were obtained from the alkaline phosphatase histochemical stains (magnification ×100) or β-galactosidase X-gal stains (magnification ×100).

[2] = test system: HT-2 cells; test: IL-2/IL-4 in supernatants of virus-restimulated MLN lymphocytes, HT-2 cell 3H-thymidine incorporation; type: cell-based, C57BL/6 mice
Experimental: Lymphocytes from MLN of the control group and IL-12 treated group of C57BL/6 mice were harvested 28 days after administration of H5.010CBALP and restimulated in vitro with UV-inactivated H5.010CMVlacZ at 10 particles/cell for 24 hours. Cell-free supernatants were assayed for the presence of IL-2 or IL-4 on HT-2 cells (an IL-2 or IL-4-dependent cell line) [Yang I, cited above]. Presence of IFN-γ in the same lymphocyte culture supernatant was measured on L929 cells as described [Yang I, cited above]. Stimulation index (S.I.) was calculated by dividing ^3H-thymidine cpm incorporated into HT-2 cells cultured in supernatants of lymphocytes restimulated with virus by ^3H-thymidine cpm incorporated into HT-2 cells cultured in supernatants of lymphocytes incubated in antigen-free medium.

[3] = test system: H5.010CBlacZ; test: Adenovirus-specific IgG and IgA in BAL by ELISA; type: in vivo, C57BL/6 mice; conditions: day 28, versus control mice
Experimental: Adenovirus-specific antibody isotype was determined in BAL by using an enzyme-linked immunosorbent assay (ELISA). Briefly, 96-well plates were coated with 100 μl of PBS containing 5×10^9 particles of H5.010CBlacZ for 18 hours at 4° C. The wells were washed 5 times with PBS. After blocking with 200 μl of 2% BSA in PBS, the plates were rinsed once with PBS and incubated with 1:10 diluted BAL samples for 90 minutes at 4° C. Thereafter, the wells were extensively washed and refilled with 100 μl of 1:1000 diluted ALP-conjugated anti-mouse IgG or IgA (Sigma). The plates were incubated, subsequently washed 5 times, and 100 μl of the substrate solution (p-nitrophenyl phosphate, PNPP) was added to each well. Substrate conversion was stopped by the addition of 50 μl of 0.1M EDTA, and reactions were read at 405 nm.
The results are shown graphically in FIGS. 1A through 1C, which summarize neutralizing antibody titer, and the relative amounts (OD405) of IgG and IgA present in BAL samples.

[4] = test system: recombinant adenoviruses H5.010CBALP and H5.010CMVlacZ; test: Liver-directed adenovirus gene transfer and readministration (Example 3); type: in vivo, C57BL/6 mice
Experimental: Experiments substantially identical to those described in Example 2 above were conducted in which viral vectors were administered into the blood for introduction of the transgene into the liver (rather than intratracheal delivery into the lung).
Female C57BL/6 mice (6-8 weeks old) were injected with suspensions of H5.010CBALP (1×10^9 pfu in 50 μl of PBS) i.p. at day 0 and similarly with H5.010CMVlacZ at day 28. One group of such mice was used as a control. Another group of mice was acutely depleted of CD4^+ cells by i.p. injection of antibody to CD4^+ cells (GK1.5; ATCC No. TIB207, 1:10 dilution of ascites) at the time of the initial gene therapy (days −3, 0, and +3). A third group of mice was injected with IL-12 (2 μg, i.p. injections) at the time of the first administration of virus (days 0 and +1). A fourth group of mice was injected with gamma interferon (2 μg, i.p. injections) at the time of the first administration of virus (days 0 and +1) .
When mice were subsequently euthanized and necropsied at days 3, 28, or 31, liver tissues were prepared for cryosections according to the procedures used above for lung tissue in Example 2.
The cryosection results were substantially similar for liver-directed gene therapy according to this method as for the lung-directed therapy of Example 2 above. The results described below were obtained from the alkaline phosphatase histochemical stains (magnification ×100) or β-galactosidase X-gal stains (magnification ×100).

[5] = test system: virus-infected C57SV cells; test: CTL 51Cr release assay of restimulated splenocytes, IL-12 (Example 6B); type: cell-based, C57BL/6 mice; conditions: ALP virus, IL-12 i.p.; 51Cr release on virus-infected target cells
Experimental: B. Splenocytes harvested from C57BL/6 mice (“B6”) and IL-12-treated C57BL/6 mice (“B6+IL12”) of Example 5 were restimulated in vitro 10 days after administration of H5.010CBALP with H5.010CMVlacZ for 5 days in DMEM supplemented with 5% FBS and […] 2-mercaptoethanol. These cells were tested for specific lysis on mock-infected (“mock”) and H5.010CBALP (“ALP”)-infected C57SV cells in a 6 hour ^51Cr release assay performed subsequently using the following ratios of effector to target cells (c57SV, H-2^b) in 200 μl DMEM with 10% FBS in V-bottom 96-well plates (E:T=50:1, 25:1, 12:1, 6:1, 5:1 and 3:1).
Prior to mixing with the effector cells, target cells (1×10^6) were labeled with 100 μCi of ^51Cr after a 24 hr-infection with H5.010CMVlacZ at an moi of 50 and used at 5×10^3 cells/well. After incubation for 6 hr, aliquots of 100 μl supernatant were removed for counting in a gamma counter.

## interleukin-12 [IL-12]
[1]; lung, intratracheal, days 3 and 28
  transgene expression after first administration of virus (ALP): diminished after about one month
[1]; lung, readministered day 28, read day 31
  gene transfer upon second administration of virus (lacZ): high level gene transfer to airway epithelial cells was achieved
[1]; treatment at the time of intratracheal instillation of virus
  inflammation and transgene persistence following a second administration of virus: did not enhance inflammation or diminish transgene persistence
[2]; MLN lymphocytes 28 days after H5.010CBALP, antigen-free medium
  3H-Thymidine Incorporation (cpm ± SD), Medium: 247 ± 34 cpm
[2]; MLN lymphocytes day 28, restimulated with UV-inactivated H5.010CMVlacZ 24 hours
  3H-Thymidine Incorporation (cpm ± SD), H5.010CMVlacZ: 5203 ± 28 cpm
[2]; as E2, with anti-IL2 (1:5000)
  3H-Thymidine Incorporation (cpm ± SD), H5.010CMVlacZ: 776 ± 50 cpm
[2]; as E2, with anti-IL4 (1:5000)
  3H-Thymidine Incorporation (cpm ± SD), H5.010CMVlacZ: 4608 ± 52 cpm
[2]; lymphocytes stimulated in vitro with virus, 3 without IL-12
  ratio of IL-2/IL-4: 6
[2]; virus restimulated / antigen-free medium
  S.I. (stimulation index): 21.07
[2]; with anti-IL2 (1:5000)
  S.I. (stimulation index): 3.14
[2]; with anti-IL4 (1:5000)
  S.I. (stimulation index): 18.66
[3]
  IgG in BAL: without significantly impacting on formation of IgG
  virus specific IgA in BAL: selectively blocked secretion of antigen specific IgA
[4]; liver, days 3 and 28
  transgene expression after first administration of virus (ALP): diminished after about one month
[4]; liver, readministered day 28, read day 31
  gene transfer upon second administration of virus (lacZ): some gene transfer to the liver via the blood was achieved
[4]; liver-directed gene therapy, Example 3
  neutralizing antibodies: the level of neutralizing antibody was reduced
[5]
  adenovirus-specific CTL activity: did not increase adenovirus-specific CTL activity; also recorded: unaffected
